{"source": "patent US5795892A", "about": "“4-aminopyridazines, method of preparing them and drugs containing these compounds” (Boehringer Manneim GmbH, priority 1994, dated 1998)", "key": {"[1]": {"molecular_target": "T1, human α thrombin (Homo sapiens, UniProt P00734)", "T1 construct": "human α thrombin; purchased Sigma", "assay": "Thrombin inhibition", "assay_type": "biochemical", "conditions": "pH=7.5, 25° C., substrate H-(D)-Phe-Pro-Arg-pNA", "method": "The kinetic measurements were carried out in 0.1M phosphate buffer that contained 0.2M sodium chloride and 0.5% polyethylene glycol 6000 at a pH=7.5 and 25° C. with the substrate H-(D)-Phe-Pro-Arg-pNA (Kabi) and human α thrombin (Sigma, specific activity=2150 NIH-units/mg) in polystyrene semi-microcuvettes in a total volume of 1 ml.\nIn a preliminary test each active substance was determined as to whether it inhibits thrombin rapidly or slowly. For this the reaction was firstly started by adding 0.03 NIH units thrombin to a 100 μM solution of the substrate and the active substance. In a second experiment, substrate was added to a solution of thrombin and the active substance which had been incubated for 5 minutes. The increase in the concentration of p-nitroaniline with time was monitored spectroscopically (UV-VIS spectrophotometer Lambda-2 from the Perkin-Elmer Company) at 405 nm for 12 min.\nSince the measured curves obtained in both experiments were linear and parallel, the active substances of the following table are rapid thrombin inhibitors.\nThe inhibition constants Ki were then determined as follows. The substrate was used at concentrations of 100 μM, 50 μM, 30 μM, 20 μM and at each substrate concentration one measurement was carried out without inhibitor and three measurements were carried out in the presence of various concentrations of the inhibitors listed in the following table. The reactions were started by the addition of thrombin. The increase in absorbance at 405 nm due to the formation of p-nitroaniline was monitored over a time period of 12 minutes. Measurement points (time versus absorbance) were transferred to a PC at intervals of 20 seconds. The rates Vo (change in absorbance per second; measurements without inhibitor) and Vi (measurements with inhibitor) are determined by linear regression. Only that part of each measurement was used in which the substrate concentration had decreased by less than 15%. Km ' and Vmax were determined from a measurement series (constant inhibitor concentration, variable substrate concentrations) by a non-linear fit to the equation [formula] Finally Ki was calculated from the entire series of measurements by non-linear fitting to the equation [formula]\nThe inhibition constants Ki of the active substances are stated in the following table in units of μM."}, "[2]": {"molecular_target": "T2, thrombin (Equus caballus, UniProt F7BFJ1)", "T2 construct": "mature thrombin (light and heavy chain) cut from prothrombin; clotting of human fibrinogen", "assay": "Thrombin time", "assay_type": "biochemical, horse thrombin, human plasma", "conditions": "37° C.; for TT5 (thrombin time as a difference to the control): 5 μM active substance in human plasma; for TT50 (thrombin time as a difference to the control): 50 μM active substance in human plasma", "method": "A conventional test in clinical coagulation diagnostics is the thrombin time. This parameter measures the action of thrombin on fibrinogen and the formation of clots. Inhibitors of thrombin result in an extended thrombin time.\nIn order to obtain plasma 9 parts of fresh blood from healthy donors was mixed with one part of sodium citrate solution (0.11 mol/l) and it was centrifuged for 10 minutes at room temperature at ca. 3000 r.p.m. The plasma was removed by pipette and can be stored at room temperature for ca. 8 hours.\n200 μl citrate plasma was incubated for 2 minutes at 37° C. in a ball coagulometer (KC10 from the Amelung Company). 10 μl dimethylsulfoxide (DMSO) or a solution of the active substance in DMSO was added to 190 μl pre-heated thrombin reagent (Boehringer Mannheim GmbH; contains ca. 3 U/ml horse thrombin and 0.0125M Ca^++). On addition of this 200 μl solution to the plasma a stopwatch was started and the time at which coagulation starts was determined.\nThe measured thrombin times in seconds are given in the following table as a difference to the control. The concentrations of the active substances in human plasma were 50 μM (TT50) and 5 μM (TT5)."}}}
{"smiles": "Cc1cc(NS(=O)(=O)c2ccccc2)cc(OCCNc2ccnnc2)c1", "note": "[Example 1, N-{3-methyl-5-[2-(pyridazin-4-ylamino)-ethoxy]-phenyl}-benzenesulfonamide]", "values": [{"measurement": "Ki", "setting": "[1]", "value": 70, "unit": "nM"}, {"measurement": "TT5 (thrombin time as a difference to the control)", "setting": "[2]", "value": 23, "unit": "s"}, {"measurement": "TT50 (thrombin time as a difference to the control)", "setting": "[2]", "value": 126, "unit": "s"}]}
{"smiles": "Cc1cc(OCCNc2ccnnc2)cc(OS(=O)(=O)c2cccnc2)c1", "note": "[Example 4]", "values": [{"measurement": "Ki", "setting": "[1]", "value": 60, "unit": "nM"}, {"measurement": "TT5 (thrombin time as a difference to the control)", "setting": "[2]", "value": 38, "unit": "s"}, {"measurement": "TT50 (thrombin time as a difference to the control)", "setting": "[2]", "value": 194, "unit": "s"}]}
{"smiles": "Cc1cc(OCCNc2ccnnc2)cc(OS(=O)(=O)c2cccc(C#N)c2)c1", "note": "[Example 9, 3-Cyanobenzenesulfonic acid-3-methyl-5-[2-(pyridazin-4-ylamino)-ethoxy]-phenyl ester]", "values": [{"measurement": "Ki", "setting": "[1]", "value": 140, "unit": "nM"}, {"measurement": "TT5 (thrombin time as a difference to the control)", "setting": "[2]", "value": 31, "unit": "s"}, {"measurement": "TT50 (thrombin time as a difference to the control)", "setting": "[2]", "value": 128, "unit": "s"}]}
{"smiles": "Cc1cc(OCCNc2ccnnc2)cc(OS(=O)(=O)c2cccc(C(N)=S)c2)c1", "note": "[Example 10, 3-Thiocarbamoyl-benzenesulfonic acid-3-methyl-5-[2-(pyridazin-4-ylamino)-ethoxy]-phenyl ester]", "values": [{"measurement": "Ki", "setting": "[1]", "value": 170, "unit": "nM"}, {"measurement": "TT5 (thrombin time as a difference to the control)", "setting": "[2]", "value": 13, "unit": "s"}, {"measurement": "TT50 (thrombin time as a difference to the control)", "setting": "[2]", "value": 71, "unit": "s"}]}
{"smiles": "Cc1cc(OCCNc2ccnnc2)cc(OS(=O)(=O)c2ccc(C#N)cc2)c1", "note": "[Example 11, 4-Cyanobenzenesulfonic acid-3-methyl-5-[2-(pyridazin-4-ylamino)-ethoxy]-phenyl ester]", "values": [{"measurement": "Ki", "setting": "[1]", "value": 200, "unit": "nM"}, {"measurement": "TT5 (thrombin time as a difference to the control)", "setting": "[2]", "value": 18, "unit": "s"}, {"measurement": "TT50 (thrombin time as a difference to the control)", "setting": "[2]", "value": 81, "unit": "s"}]}
{"smiles": "CCOC(=O)COc1cccc(S(=O)(=O)Oc2cc(C)cc(OCCNc3ccnnc3)c2)c1", "note": "[Example 13, (3-{3-Methyl-5-[2-(pyridazin-4-ylamino)-ethoxy]-phenoxy-sulfonyl}-phenoxy)-acetic acid ethyl ester]", "values": [{"measurement": "Ki", "setting": "[1]", "value": 90, "unit": "nM"}, {"measurement": "TT5 (thrombin time as a difference to the control)", "setting": "[2]", "value": 0, "unit": "s"}, {"measurement": "TT50 (thrombin time as a difference to the control)", "setting": "[2]", "value": 49, "unit": "s"}]}
{"smiles": "Cc1cc(NS(=O)(=O)C2CCCCC2)cc(OCCNc2ccnnc2)c1", "note": "[Example 22, N-{3-Methyl-5-[2-(pyridazin-4-ylamino)-ethoxy]-phenyl}-cyclohexanesulfonamide]", "values": [{"measurement": "Ki", "setting": "[1]", "value": 350, "unit": "nM"}, {"measurement": "TT5 (thrombin time as a difference to the control)", "setting": "[2]", "value": 11, "unit": "s"}, {"measurement": "TT50 (thrombin time as a difference to the control)", "setting": "[2]", "value": 90, "unit": "s"}]}
